For the assay, the target named is T1, rat lenses aldose reductase (Rattus norvegicus, UniProt P07943).
T1 construct: The supernatant fraction of the rat lens homogenate was prepared in accordance with the procedure described in literature; from tissue; host or cells: lens of SD rats
In words: Inhibitory effect on rat lens aldose reductase activity in vitro. Type of assay: biochemical. The following applies: for IC50: rat lens aldose reductase, DL-glyceraldehyde substrate, NADPH decrease at 340 nm. Here is the method:
Crude aldose reductase (AR) was prepared as follows: rat lense were removed from SD rats weighing 250-280 g and frozen until use. The supernatant fraction of the rat lens homogenate was prepared in accordance with the procedure described in literature (Hayman, S. & Kinoshita, J. H.; J. Biol. Chem., 240, pp 877-882, 1965). Partially purified enzyme with a specific activity of 6.5 U/mg was routinely used to rest enzyme inhibition.
(2) Measurement of Aldose Reductase Activity AR activity was assayed spectrophotometrically by measuring the decrease in absorption of NADPH at 340 nm over a 5 min with DL-glyceraldehyde as a substrate (Sato, S and Kador, P. F., Biochem. Pharmacol., 40, pp 1033-1042, 1990). Each 1.0 ml of cuvette containing equal units of enzyme, 0.10M sodium phospate buffer (pH 6.2), 0.3 mM NADPH with or without 10 mM substrate and the enzyme inhibitor. The concentration of inhibitors giving 50% inhibition of enzyme activity (IC50) was calculated from the lease-squares regression line of the logarithmic concentration plotted against the remaining activity.

Read-outs that look alike come from different tables or passages of the source.

On to `O=C(O)c1cc(O)ccc1O` [2,5-dihydroxybenzoic acid, 2,5-dihydroxy benzoic acid], for which the IC50 (commonly the concentration needed to halve the response being measured) (read-out: IC50 (converted)) was 256 µM. On the same count and under the same terms, next, `CCCCCCCC[C@@H](O)C(=O)N[C@@H](CO[C@@H]1OC(CO)[C@@H](O)C(O)C1O)[C@H](O)/C=C/CC/C=C(\C)CCCC` (stereo partly shown) [Cerebroside]: 52.3 µM; `O=Cc1ccc(O)c(O)c1` [Protocatechualdehyde, protocatechualdehyde]: 5.21 µM. Turning to `O=C(O)CC1(CC(=O)O)CCCC1` [TMG, tetramethylene glutaric acid], the IC50 is 0.63 µg/mL. The “inhibition (%)” value (Concentration 0.1 (unit not given)) was 29.8%. Also, the “inhibition (%)” value (Concentration 1 (unit not given)) was determined as 53.7%. Further, the “inhibition (%)” value (Concentration 10 (unit not given)) amounted to 82.1%.

The record behind these values is US7595055B2, “Pharmaceutical composition comprising an extract or compounds isolated from Elfvingia applanata for the prevention and the treatment of diabetes and diabetic complications” (priority 2003, dated 2009).
